Data: patent US6610835B1, “Sphingolipid derivatives and their methods of use” (Emory University, priority 1998, dated 2003)

Key:
C3H 10T1/2 cells = conditions: cited from earlier work; for promotion of transformed foci by phorbol esters: levels that affected protein kinase C but not noticeably cytotoxic
HT-29 cells = assay: MTT assay, induction of cell death by sphingolipids; type: cell-based, human
Description: The activity of sphingosine, sphinganine and 1-deoxy-5-hydroxy-sphinganine in a human colon cancer cell line was investigated. The structures of the tested compounds appear below. [drawing 4]
An MTT assay was used to determine the cytotoxicity of the compounds shown above. Only cells with intact mitochondria are able to form formazane crystals, whereas late apoptotic and necrotic cells are not. The optical density of formazane crystals is used to infer cell viability. A 15 μM treatment of 1-deoxy-5-hydroxy-sphinganine results in nearly 100% cell death in HT-29 cells after 24 hours.

[1] = in vivo; cited from earlier work
[2] = mouse, in vivo; cited from earlier work
[3] = test system: aberrant colonic crypts induced by DMH; conditions: diet supplemented with 0.05% sphingomyelin, analyzed on week 7; cited from earlier work
DMH-induced tumors = conditions: cited from earlier work
[4] = test system: renal bladder and colon cancer cell lines; conditions: cited from earlier work
colonic crypts = assay: Cell proliferation in colonic crypts of DMH-treated mice fed GluAcCer; type: in vivo
Description: Female CF1 mice were injected with DMH to initiate colonic tumors. […] The control group was fed the AIN 76A diet without supplements (one group without DMH and the other with DMH only). After four weeks, the mice were killed, the colons excised, and evaluated for the appearance of ACF.
The effect of GluAcCer on cell proliferation was also investigated since a deregulation of cell growth is observed in carcinogenesis. […] Therefore, feeding synthetic GluAcCer to mice suppresses the formation of early stages in colon carcinogenesis, possibly by restricting the proliferation to the lower half of the colonic crypt.

[5] = test system: ACF (DMH-initiated colonic tumors); assay: Chemically (DMH) induced colon cancer model, aberrant crypt foci (ACF) after dietary supplementation; type: in vivo, Female CF1 mice; conditions: for ACF: four weeks after DMH, control 30.2±4.19
Description: Female CF1 mice were injected with DMH to initiate colonic tumors. After initiation, the mice were fed and AIN 76A diet supplemented with GluAcCer (0.025 or 0.1% of the diet). The control group was fed the AIN 76A diet without supplements (one group without DMH and the other with DMH only). After four weeks, the mice were killed, the colons excised, and evaluated for the appearance of ACF.

[6] = molecular target: T1, β-glucuronidase from E. coli (Escherichia coli, UniProt P05804); assay: Cleavage of GluAcCer by bacterial β-glucuronidase; type: biochemical; conditions: β-glucuronidase from E. coli (Sigma), supplier's instructions
T1 construct: purchased Sigma
T1 sequence (P05804 whole entry): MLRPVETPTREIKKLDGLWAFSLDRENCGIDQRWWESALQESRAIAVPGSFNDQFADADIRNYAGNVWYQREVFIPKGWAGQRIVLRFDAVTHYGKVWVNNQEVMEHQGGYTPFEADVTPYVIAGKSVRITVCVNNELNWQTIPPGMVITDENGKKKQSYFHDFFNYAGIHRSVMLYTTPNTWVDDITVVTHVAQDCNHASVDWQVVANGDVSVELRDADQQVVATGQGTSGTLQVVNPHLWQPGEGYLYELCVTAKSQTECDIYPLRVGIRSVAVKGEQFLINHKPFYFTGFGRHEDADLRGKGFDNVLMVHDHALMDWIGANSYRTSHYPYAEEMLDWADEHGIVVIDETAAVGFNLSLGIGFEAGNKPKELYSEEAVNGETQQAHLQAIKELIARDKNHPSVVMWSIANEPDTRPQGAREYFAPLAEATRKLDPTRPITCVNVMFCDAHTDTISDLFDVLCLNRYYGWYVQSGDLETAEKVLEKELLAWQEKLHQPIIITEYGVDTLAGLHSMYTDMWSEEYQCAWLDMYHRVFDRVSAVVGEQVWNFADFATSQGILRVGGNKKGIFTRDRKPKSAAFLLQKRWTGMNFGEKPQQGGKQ
Source text: Glucornoylceramide (GluAcCer), a ceramide with a glucuronic acid headgroup was synthesized according to the methods described above. The metabolism of GluAcCer requires β-glucuronidase, an enzyme found in bacteria but not in human intestinal cells. Accordingly, dietary GluAcCer cannot be digested in the small intestine but should be hydrolyzed in the colon by the colonic microflora.

CCCCCCCCCCCCCCC[C@@H](O)[C@@H](N)CO [sphinganine]
number of transformed foci in cells treated with just γ-irradiation (C3H 10T1/2 cells): reduced the number of transformed foci
promotion of transformed foci by phorbol esters (C3H 10T1/2 cells): completely blocked
treatment required to produce comparable (nearly 100%) cell death (HT-29 cells; after 24 hours): 50 µM

CCCCCCCCCCCCC/C=C/C(O)C(N)CO [sphingosine, D-erythro-4-trans-sphinganine]
number of transformed foci in cells treated with just γ-irradiation (C3H 10T1/2 cells): reduced the number of transformed foci
promotion of transformed foci by phorbol esters (C3H 10T1/2 cells): completely blocked
treatment required to produce comparable (nearly 100%) cell death (HT-29 cells; after 24 hours): 50 µM

sphingomyelin
peak absorption of radiolabel after feeding [1]: 10 h
radiolabel found in feces, mainly as ceramide [1]: 21-46%
radiolabel recovered in lymph [1]: up to 30%
label appeared in liver sphingolipids [2]: About 5%
radiolabel progressed into the colon [2]: 3-5%
reduction in the number of aberrant colonic crypts induced by DMH [3]: 50%
tumor incidence versus control (DMH-induced tumors; milk sphingomyelin pilot and buttermilk sphingomyelin experiment): about half
tumor type (adenomas versus adenocarcinomas) (DMH-induced tumors; second study with buttermilk sphingomyelin, histological analyses): more adenomas versus adenocarcinomas than for the control
number of overall tumors (DMH-induced tumors; second study with buttermilk sphingomyelin): no reduction

Fumonisin B
cytostatic activity [4]: has cytostatic activity

CCCCCCCCCCCCCC(O)CC(O)C(C)N (stereo not drawn) [1-deoxy-5-hydroxy-sphinganine]
potency in inducing cell death relative to sphingosine and sphinganine (HT-29 cells): at least twice as potent
cell death (HT-29 cells; 15 μM treatment, after 24 hours): ~100%

CCCCCCCCCCCCC/C=C/[C@@H](O)[C@H](CO[C@@H]1O[C@H](C(=O)O)[C@@H](O)[C@H](O)[C@H]1O)NC(=O)CCCCCCCCCCCCCCC [GluAcCer, 1-O-B-D-Glucuronoyl-2N-palmitoylsphingosine]
proliferation in the lower half of the colonic crypts (colonic crypts; GluAcCer (FIG. 13b)): reduced the proliferation
proliferation in the upper half of the crypts (colonic crypts; both concentrations of GluAcCer in the diet (FIG. 13a)): reduced proliferation in the upper half of the crypts in a dose dependent manner
ACF ([5]; 0.025% GluAcCer in AIN 76A diet): 21 ±2.94
inhibition of ACF formation ([5]; 0.025 or 0.1% of the diet, versus control (FIG. 12)): 20-30%
ACF ([5]; 0.1% GluAcCer in AIN 76A diet): 19.2±3.09
ability to be cleaved by bacterial enzymes [6]: cleaved by bacterial enzymes
